Source: US9352010B2, “Treatment of HIV-1 infection and AIDS” (The J. David Gladstone Institutes, priority 2011, dated 2016)
pIC50, pKi: −log10 of the molar value. Residues, ends and D or L forms follow the SMILES beside them. *: point of attachment. Cbz = O=C(OCc1ccccc1)*; CH2F = FC*

Key:
[1] = tested on: AIM2 (Absent in melanoma-2) inflammasome; details: by preventing ASC oligomerisation; cited from earlier work
[2] = tested on: human caspases; details: irreversible broad-spectrum; cited from earlier work
[3] = tested on: other classes of proteases or other enzymes or receptors; details: cited from earlier work
[4] = tested on: patients with chronic Hepatitis C; details: oral or intravenous, 5 mg to 400 mg daily; cited from earlier work
[5] = tested on: patients with hepatic impairment; details: phase I; cited from earlier work
[6] = tested on: CI/WR (cold ischemia/warm reperfusion)-induced apoptosis and injury in the liver; details: in vivo; cited from earlier work
[7] = tested on: transient ischemia in rat; details: cited from earlier work
[8] = target: caspase-1 (Homo sapiens, UniProt P29466); details: cited from earlier work
[9] = target: caspase-4 (Homo sapiens, UniProt P49662); details: read-out: Ki against caspase-4; cited from earlier work
[10] = tested on: murine models of inflammatory disease; details: cited from earlier work
[11] = tested on: human PBMCs; details: cited from earlier work
[12] = tested on: CFSE-labeled CD4 T-cells; format: cell-based, human
Method: (A) Experimental strategy to assess indirect cell killing in HIV-1-infected human lymphoid cultures. Fresh human tonsil tissue from a single donor is processed into HLAC, and then separated into two fractions. One fraction is challenged with HIV-1 and cultured for 6 days, allowing viral spread. On day 5, the uninfected fraction is treated with AZT (5 μM) and labeled with CFSE (1 μM). On day 6, the infected and CFSE-labeled (i.e., uninfected) cultures are mixed and co-cultured in the presence of AZT. […] After 6 days of co-culturing, the number of viable CFSE-positive cells is determined by flow cytometry. (B) Flow cytometry analysis of the mixed HLACs. Indirect killing is determined by gating on live CFSE-positive cells in the mixed cultures. Effector cells are either infected or uninfected cells. […] CFSE-labeled cells mixed with uninfected or infected cells were cultured in the presence of 5 μM AZT alone or together with 250 nM AMD3100. Data represent live CFSE-positive cells 6 days after co-culture with infected or uninfected effector cells. […] The absolute numbers of viable CFSE-positive CD4 and CD8 T-cells and B cells were determined. Percentages are normalized to the number of viable CFSE-positive cells co-cultured with uninfected cells in the presence of AZT, as depicted by (*). Error bars represent standard deviations of three samples from the same donor. […] See also FIG. 3.
Human tonsil or splenic tissues from routine tonsillectomies were obtained from the National Disease Research Interchange and the Cooperative Human Tissue Network and processed as previously described (Jekle et al., 2003, J Virol 77:5846-5854). In brief, tonsils or spleen were minced, passed through a 40-μm cell strainer, and cultured in 96-well U-bottomed polystyrene plates (2×10^6 cells/well) in medium (200 μl/well) consisting of RPMI 1640 supplemented with 15% heat-inactivated fetal bovine serum, 100 μg/ml gentamicin, 200 μg/ml ampicillin, 1 mM sodium pyruvate, 1% nonessential amino acids (Mediatech), 2 mM L-glutamine, and 1% fungizone (Invitrogen). All HIV-1 infections were carried out with 20-50 ng of HIV-1 p24^gag. Cells were incubated with the virus for 12-16 h, washed extensively, and supplemented with fresh medium. After day 5, infections were monitored by measuring p24gag levels in the culture medium using a FLAQ assay (Hayden et al., 2003, AIDS 17:629-631). Infected and uninfected cultures were manipulated as described for individual experiments. In “indirect killing” assays, unless otherwise stated, drugs were used at the following concentrations: 5 μM AZT; 250 nM AMD3100; 10 μg/ml T20; 100 nM Efavirenz; 1 μM Nevirapine; 30 μM Raltegravir; 60 μM 118-D-24; 5 μM Amprenavir; 5 μM Saquinavir; 5 μM Indinavir. CFSE-labeled cells were activated with PHA (5 μg/ml) and IL-2 (20 ng/ml) 2 days before mixing with effector cells.
Uninfected cells (5×10^6/ml) were labeled with 1 μM CFSE (Molecular Probes C1157), treated with 5 μM AZT for 24 h, and co-cultured with effector cells. CFSE readily diffuses into cells, where intracellular esterases cleave the acetate groups, converting it to a fluorescent, membrane-impermeable dye.

[13] = tested on: CD4 T cells in HIV-1 (NL4-3)-infected HLACs; assay: CD4 T-cell death in HIV-1-infected HLACs, viable CD4 T cells by flow cytometry; format: cell-based, human; details: 3 days
Method: HLACs were left uninfected or infected with HIV-1 (NL4-3 clone) in the presence of AZT, efavirenz, AMD3100, or caspase inhibitors (20 μM each), as indicated in FIG. 16. After 3 days, the percentages of viable CD4 T cells in the cultures were determined by flow cytometry.
HLACs were left uninfected or infected with NL4-3 in the presence of no drugs, efavirenz, AMD3100, or caspase inhibitors (50 μM or 100 μM), as indicated in FIG. 16B. After 3 days, the percentages of viable CD4 T cells in the cultures were determined by flow cytometry.

[14] = tested on: lactate dehydrogenase (LDH) release; assay: LDH release from HIV-1-infected HLACs (pyroptosis); format: cell-based, human; details: caspase inhibitors 50 μM or 100 μM, 3 days, FIG. 16C
Method: Caspase-1 activation can lead to a highly inflammatory form of cell death called pyroptosis. To gain insight into how CD4 T cells die, it was determined whether HIV infection in CD4 T cells induce pyroptosis cell death, as measured by lactate dehydrogenase (LDH) release. HLACs were left uninfected or infected with NL4-3 in the presence of no drugs, efavirenz, AMD3100, or caspase inhibitors (50 μM or 100 μM), as indicated in FIG. 16C. After 3 days, the supernatants were assayed for the cytosolic enzyme lactate dehydrogenase (LDH) and the LDH released by dying cells was quantified.

[15] = tested on: CD4 T cells in HIV-1 (NL4-3)-infected HLACs; assay: CD4 T-cell death in HIV-1-infected HLACs, viable CD4 T cells by flow cytometry; format: cell-based, human; details: FIG. 15, 4 different donors
[16] = tested on: IL-1β; assay: Release of 17-kDa IL-1β from isolated tonsillar CD4 T-cells (ionophore stimulus); format: cell-based, human; details: nigericin 10 μM
Method: For stimulating the processing and secretion of IL-1, CD4 T-cells were isolated from HLACs by positive selection and treated with 0.5 μM PMA ([…], Calbiochem Cat. #524400) for 6 hours at 37° C. PMA induces large intracellular stores of the 35 kDa pro-IL-1β. Cells were then washed with PBS and treated with 10 μM nigericin (Sigma, Cat. # N7143) overnight at 37° C. The potassium ionophore nigericin mediates an elecroneutral exchange of intracellular K^+ ions for extracellular protons, providing a second inflammatory stimulus, which results in the maturation and release of the bioactive 17 kDa IL-1β(Perregaux et al., 1992, J Immunol 149:1294-1303; Perregaux and Gabel, 1994, J Biol Chem 269:15195-15203).
Isolated tonsillar CD4 T-cells were treated overnight with nigericin (10 μM) to provide a second inflammatory stimulus, resulting in maturation and release of bioactive 17-kDa IL-1β. Supernatants from the cell cultures were subjected to SDS-PAGE and immunoblotting. 17-kDa IL-1β was released after treatment with nigericin, but not with calcium ionophore A23187 or the nonspecific cation ionophore monensin. Thus, while these cells are primed, they must receive the appropriate proinflammatory signal for pro-IL-1β processing and release. […]

caspase-1, sequence (P29466 120-297 limits assumed): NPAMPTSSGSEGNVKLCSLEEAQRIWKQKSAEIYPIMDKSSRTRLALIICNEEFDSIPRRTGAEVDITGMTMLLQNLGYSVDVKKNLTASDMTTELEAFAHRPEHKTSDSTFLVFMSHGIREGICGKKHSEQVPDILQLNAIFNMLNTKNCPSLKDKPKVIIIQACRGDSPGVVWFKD
caspase-1, sequence (P29466 317-404 limits assumed): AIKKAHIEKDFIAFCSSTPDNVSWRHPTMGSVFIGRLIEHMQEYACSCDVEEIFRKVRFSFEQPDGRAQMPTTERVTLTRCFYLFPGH
caspase-4, sequence (P49662 81-270 limits assumed): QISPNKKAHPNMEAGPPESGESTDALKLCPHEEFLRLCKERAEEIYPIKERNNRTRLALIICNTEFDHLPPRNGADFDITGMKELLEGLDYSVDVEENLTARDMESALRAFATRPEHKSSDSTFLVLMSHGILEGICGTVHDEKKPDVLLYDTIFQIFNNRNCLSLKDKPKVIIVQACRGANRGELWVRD
caspase-4, sequence (P49662 290-377 limits assumed): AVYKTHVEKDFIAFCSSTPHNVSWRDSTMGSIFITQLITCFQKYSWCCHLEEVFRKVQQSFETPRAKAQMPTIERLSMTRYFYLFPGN

In the case of `CC(C)(O)c1coc(S(=O)(=O)NC(=O)Nc2c3c(cc4c2CCC4)CCC3)c1` [CRID3], the AIM2 inflammasome [1] is given as “inhibited”.
In the case of `C[C@H](NC(=O)C(=O)Nc1ccccc1C(C)(C)C)C(=O)N[C@@H](CC(=O)O)C(=O)COc1c(F)c(F)cc(F)c1F` [IDN-6556], the caspase inhibition spectrum [2] is listed as “activity against all tested human caspases”, the “inhibition of other classes of proteases or other enzymes or receptors” value [3] is listed as “no inhibition” and the “efficacy (aminotransferase activity)” value [4] is listed as “efficacious”. The tolerability [4] was “well tolerated”, the tolerability [5] was “well tolerated” and the “CI/WR-induced apoptosis and injury in the liver and other organs” value [6] was “reduced CI/WR (cold ischemia/warm reperfusion)-induced apoptosis and injury”.
For `O=C[C@H](CC(=O)O)NC(=O)[C@@H]1CCCN2C(=O)CC[C@H](NC(=O)c3nccc4ccccc34)C(=O)N12` [VRT-018858], the “brain damage induced by transient ischemia” value [7] is listed as “markedly reduced brain damage”, the “selectivity for caspase 1 and caspase-4 against other caspases” value [8] is listed as over 100 fold and the pKi ([8]; read-out: Ki against caspase-1) is listed as 8.89. The pKi [9] was 9.40.
In the case of `CCO[C@@H]1OC(=O)C[C@@H]1NC(=O)[C@@H]1CCCN1C(=O)[C@@H](NC(=O)c1ccc(N)c(Cl)c1)C(C)(C)C` [VX-765, (S)-1-((S)-2-{[1-(4-Amino-3-chloro-phenyl)-methanoyl]-amino}-3,3-dimethyl-butanoyl)-pyrrolidine-2-carboxylic acid ((2R,3S)-2-ethoxy-5-oxo-tetrahydro-furan-3-yl)-amide], the inflammatory response [10] is given as “reduces inflammatory response”, the IL-1β secretion ([11]; Stack et al.) is given as “blocked IL-1β secretion” and the pIC50 ([11]; human PBMCs, read-out: IC50, release of LPS-induced IL-1β and IL-18) is given as about 6.15.
For `COC(=O)CC[C@H](NC(=O)[C@H](CC(=O)OC)NC(=O)OCc1ccccc1)C(=O)N[C@H](C(=O)N[C@@H](CC(=O)OC)C(=O)CF)C(C)C` [Z-DEVD-FMK], the “reduction of cell death” value ([12]; 20 μM, specific inhibition of caspase-3) was 50%, the “CD4 T-cell population whose death was prevented” value ([13]; 20 μM, FIG. 16A) was 50% and the “CD4 T-cell death in HIV-infected cultures” value ([13]; caspase inhibitors 50 μM or 100 μM, FIG. 16B) was “did not prevent the death”. For the same molecule, the “LDH release from HIV-1 infected cells” value [14] was “did not prevent the LDH release” and the “death of infected CD4 T-cells” value [15] was “also inhibits death of infected CD4 T cells, however, not as efficient as caspase-1 inhibitors”.
In the case of `COC(=O)C[C@H](NC(=O)[C@H](C)NC(=O)[C@@H](NC(=O)OCc1ccccc1)C(C)C)C(=O)CF` [Z-VAD-FMK, Z-Val-Ala-Asp(OMe)-Fluoro methyl ester] (Cbz-Val-Ala-Asp(OMe)-CH2F), the “death of abortively infected CD4 T-cells with caspase inhibitors” value ([12]; 20 μM caspase inhibitor, AZT 5 μM) was “completely prevented”, the “nigericin-induced IL-1β release after pre-treatment with caspase inhibitor” value [16] was “blocked” and the “death of infected CD4 T-cells” value [15] was “inhibit the death of infected CD4 T-cells”.
